Laboratory results published in PubChem BioAssay (NCI).
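Step 1: Grow cells in 96-well plates. Step 2: Expose to compound for 48 hours at 5 concentrations. Step 3: Interpolate endpoints linearly; if unreached, use highest concentration. At the GI50, growth is halved. TGI: concentration producing complete growth inhibition.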

Tests used:
Assay in all cases: NCI-60 cell line screen, 48 h; in the data active = GI50 below about 0.43 µM; inactive = the rest
786-0 renal = test system: 786-0 renal
A498 renal = test system: A498 renal
A549 NSCLC = test system: A549 NSCLC
ACHN renal = test system: ACHN renal
CAKI-1 renal = test system: CAKI-1 renal
CCRF-CEM leukemia = test system: CCRF-CEM leukemia
COLO 205 colon = test system: COLO 205 colon
DU-145 prostate = test system: DU-145 prostate
EKVX NSCLC = test system: EKVX NSCLC
HCC-2998 colon = test system: HCC-2998 colon
HCT-116 colon = test system: HCT-116 colon
HCT-15 colon = test system: HCT-15 colon
HL-60(TB) leukemia = test system: HL-60(TB) leukemia
HOP-62 NSCLC = test system: HOP-62 NSCLC
HOP-92 NSCLC = test system: HOP-92 NSCLC
HS 578T breast = test system: HS 578T breast
HT29 colon = test system: HT29 colon
IGROV1 ovarian = test system: IGROV1 ovarian
K-562 leukemia = test system: K-562 leukemia
KM12 colon = test system: KM12 colon
LOX IMVI melanoma = test system: LOX IMVI melanoma
M14 melanoma = test system: M14 melanoma
MALME-3M melanoma = test system: MALME-3M melanoma
MCF7 breast = test system: MCF7 breast
MDA-MB-231 breast = test system: MDA-MB-231 breast
MDA-MB-435 = test system: MDA-MB-435
MOLT-4 leukemia = test system: MOLT-4 leukemia
NCI-H226 lung = test system: NCI-H226 lung
NCI-H23 lung = test system: NCI-H23 lung
NCI-H460 lung = test system: NCI-H460 lung
NCI-H522 lung = test system: NCI-H522 lung
NCI/ADR-RES ovarian = test system: NCI/ADR-RES ovarian
OVCAR-3 ovarian = test system: OVCAR-3 ovarian
OVCAR-4 ovarian = test system: OVCAR-4 ovarian
OVCAR-5 ovarian = test system: OVCAR-5 ovarian
PC-3 prostate = test system: PC-3 prostate
RPMI-8226 leukemia = test system: RPMI-8226 leukemia
SF-268 CNS = test system: SF-268 CNS
SF-295 CNS = test system: SF-295 CNS
SF-539 CNS = test system: SF-539 CNS
SK-MEL-2 melanoma = test system: SK-MEL-2 melanoma
SK-MEL-28 melanoma = test system: SK-MEL-28 melanoma
SK-MEL-5 melanoma = test system: SK-MEL-5 melanoma
SK-OV-3 ovarian = test system: SK-OV-3 ovarian
SN12C renal = test system: SN12C renal
SNB-19 CNS = test system: SNB-19 CNS
SNB-75 CNS = test system: SNB-75 CNS
SR leukemia = test system: SR leukemia
SW-620 colon = test system: SW-620 colon
T-47D breast = test system: T-47D breast
TK-10 renal = test system: TK-10 renal
U251 CNS = test system: U251 CNS
UACC-62 melanoma = test system: UACC-62 melanoma
UO-31 renal = test system: UO-31 renal

COc1ccccc1N1CCN(CCCn2c(=O)c3c(OC)nc(C)cc3c(=O)n2-c2ccccc2)CC1
inactive: GI50 (786-0 renal) > 100 µM | GI50 (A498 renal) > 100 µM | GI50 (A549 NSCLC) > 100 µM | GI50 (ACHN renal) > 100 µM | GI50 (CAKI-1 renal) > 100 µM | GI50 (CCRF-CEM leukemia) > 100 µM | GI50 (COLO 205 colon) > 100 µM | GI50 (DU-145 prostate) > 100 µM | GI50 (EKVX NSCLC) > 100 µM | GI50 (HCC-2998 colon) > 100 µM | GI50 (HCT-116 colon) > 100 µM | GI50 (HCT-15 colon) > 100 µM | GI50 (HL-60(TB) leukemia) > 100 µM | GI50 (HOP-62 NSCLC) > 100 µM | GI50 (HOP-92 NSCLC) > 100 µM | GI50 (HS 578T breast) > 100 µM | GI50 (HT29 colon) > 100 µM | GI50 (IGROV1 ovarian) > 100 µM | GI50 (K-562 leukemia) > 100 µM | GI50 (KM12 colon) > 100 µM | GI50 (LOX IMVI melanoma) > 100 µM | GI50 (M14 melanoma) > 100 µM | GI50 (MALME-3M melanoma) > 100 µM | GI50 (MCF7 breast) > 100 µM | GI50 (MDA-MB-231 breast) > 100 µM | GI50 (MDA-MB-435) > 100 µM | GI50 (MOLT-4 leukemia) > 100 µM | GI50 (NCI-H226 lung) > 100 µM | GI50 (NCI-H23 lung) > 100 µM | GI50 (NCI-H460 lung) > 100 µM | GI50 (NCI-H522 lung) > 100 µM | GI50 (NCI/ADR-RES ovarian) > 100 µM | GI50 (OVCAR-3 ovarian) > 100 µM | GI50 (OVCAR-4 ovarian) > 100 µM | GI50 (OVCAR-5 ovarian) > 100 µM | GI50 (PC-3 prostate) > 100 µM | GI50 (RPMI-8226 leukemia) > 100 µM | GI50 (SF-268 CNS) > 100 µM | GI50 (SF-295 CNS) > 100 µM | GI50 (SF-539 CNS) > 100 µM | GI50 (SK-MEL-2 melanoma) > 100 µM | GI50 (SK-MEL-28 melanoma) > 100 µM | GI50 (SK-MEL-5 melanoma) > 100 µM | GI50 (SK-OV-3 ovarian) > 100 µM | GI50 (SN12C renal) > 100 µM | GI50 (SNB-19 CNS) > 100 µM | GI50 (SNB-75 CNS) > 100 µM | GI50 (SR leukemia) > 100 µM | GI50 (SW-620 colon) > 100 µM | GI50 (T-47D breast) > 100 µM | GI50 (TK-10 renal) > 100 µM | GI50 (U251 CNS) > 100 µM | GI50 (UACC-62 melanoma) > 100 µM | GI50 (UO-31 renal) > 100 µM
> 100 µM: TGI (786-0 renal) | TGI (A498 renal) | TGI (A549 NSCLC) | TGI (ACHN renal) | TGI (CAKI-1 renal) | TGI (CCRF-CEM leukemia) | TGI (COLO 205 colon) | TGI (DU-145 prostate) | TGI (EKVX NSCLC) | TGI (HCC-2998 colon) | TGI (HCT-116 colon) | TGI (HCT-15 colon) | TGI (HL-60(TB) leukemia) | TGI (HOP-62 NSCLC) | TGI (HOP-92 NSCLC) | TGI (HS 578T breast) | TGI (HT29 colon) | TGI (IGROV1 ovarian) | TGI (K-562 leukemia) | TGI (KM12 colon) | TGI (LOX IMVI melanoma) | TGI (M14 melanoma) | TGI (MALME-3M melanoma) | TGI (MCF7 breast) | TGI (MDA-MB-231 breast) | TGI (MDA-MB-435) | TGI (MOLT-4 leukemia) | TGI (NCI-H226 lung) | TGI (NCI-H23 lung) | TGI (NCI-H460 lung) | TGI (NCI-H522 lung) | TGI (NCI/ADR-RES ovarian) | TGI (OVCAR-3 ovarian) | TGI (OVCAR-4 ovarian) | TGI (OVCAR-5 ovarian) | TGI (PC-3 prostate) | TGI (RPMI-8226 leukemia) | TGI (SF-268 CNS) | TGI (SF-295 CNS) | TGI (SF-539 CNS) | TGI (SK-MEL-2 melanoma) | TGI (SK-MEL-28 melanoma) | TGI (SK-MEL-5 melanoma) | TGI (SK-OV-3 ovarian) | TGI (SN12C renal) | TGI (SNB-19 CNS) | TGI (SNB-75 CNS) | TGI (SR leukemia) | TGI (SW-620 colon) | TGI (T-47D breast) | TGI (TK-10 renal) | TGI (U251 CNS) | TGI (UACC-62 melanoma) | TGI (UO-31 renal)
